Test results: patent US20120238549A1, “Nuclear Hormone Receptor Modulators” (ABBOTT LABORATORIES, priority 2011, published 2012)

biological target: T1, Glucocorticoid Receptor (GR) (Homo sapiens, UniProt P04150); assay: GR Florescence Polarization Assay (PolarScreen Glucocorticoid Receptor Competitor Assay, Red); details: Fluorescense polarization binding ranges; competition with fluorescent glucocorticoid, incubated overnight at 4° C.
T1 construct: purchased Invitrogen P2893
T1 sequence (P04150 1-777): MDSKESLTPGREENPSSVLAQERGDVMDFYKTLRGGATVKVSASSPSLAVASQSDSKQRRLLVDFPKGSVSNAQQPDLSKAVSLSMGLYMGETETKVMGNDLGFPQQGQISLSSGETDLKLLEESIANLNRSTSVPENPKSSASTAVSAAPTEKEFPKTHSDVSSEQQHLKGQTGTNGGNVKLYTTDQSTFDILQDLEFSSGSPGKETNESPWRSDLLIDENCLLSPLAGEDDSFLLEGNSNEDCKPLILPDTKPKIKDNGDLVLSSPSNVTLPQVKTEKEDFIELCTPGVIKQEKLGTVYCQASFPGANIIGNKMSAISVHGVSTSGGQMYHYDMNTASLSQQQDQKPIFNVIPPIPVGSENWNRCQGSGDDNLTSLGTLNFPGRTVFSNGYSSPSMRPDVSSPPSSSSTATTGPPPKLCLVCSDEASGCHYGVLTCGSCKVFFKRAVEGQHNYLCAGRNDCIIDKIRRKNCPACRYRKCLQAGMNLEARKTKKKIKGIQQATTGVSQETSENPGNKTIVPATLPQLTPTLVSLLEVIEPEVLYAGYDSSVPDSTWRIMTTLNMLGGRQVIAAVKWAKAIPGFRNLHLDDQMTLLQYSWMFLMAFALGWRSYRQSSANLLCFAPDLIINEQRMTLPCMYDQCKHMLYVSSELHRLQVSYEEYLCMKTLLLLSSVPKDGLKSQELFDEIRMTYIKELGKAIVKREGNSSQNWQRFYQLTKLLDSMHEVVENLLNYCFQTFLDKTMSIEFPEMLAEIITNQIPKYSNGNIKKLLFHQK
Experimental: GR Florescence Polarization Assay Florescence polarization assays were carried out using the PolarScreen™ Glucocorticoid Receptor Competitor Assay, Red from Invitrogen (P2893). The assay buffer was prepared according to the manufacturer's protocol and used to dilute the fluorescent glucocorticoid and GR. Compounds were prepared and serial diluted 1:4 in DMSO. Compound, fluorescent glucocorticoid and GR were added in a final volume of 20 μL and incubated overnight at 4° C. Fluorescent polarization was measured on the Perkinelmer Envision®.

Row | IC50 [nM] | SMILES
1 | < 100 | Cc1ncccc1NC(=O)c1ccc2c(c1)CCCC1=C[C@](C)(O)CC[C@]12Cc1ccccc1 (racemic) [Example 19, (9R,11aS)-11a-Benzyl-9-hydroxy-9-methyl-6,7,9,10,11,11a-hexahydro-5H-dibenzo[a,c]cycloheptene-3-carboxylic acid (2-methyl-pyridin-3-yl)-amide; compound with (9S,11aR)-11a-benzyl-9-hydroxy-9-methyl-6,7,9,10,11,11a-hexahydro-5H-dibenzo[a,c]cycloheptene-3-carboxylic acid (2-methyl-pyridin-3-yl)-amide]
2 | < 100 | CC[C@@]1(O)CC[C@@]2(Cc3ccccc3)c3ccc(C(=O)Nc4cccnc4C)cc3C(=O)CC[C@H]2C1 (racemic) [Example 23, (7aS,9R,11aS)-11a-Benzyl-9-ethyl-9-hydroxy-5-oxo-6,7,7a,8,9,10,11,11a-octahydro-5H-dibenzo[a,c]cycloheptene-3-carboxylic acid (2-methyl-pyridin-3-yl)-amide; compound with (7aR,9S,11aR)-11a-benzyl-9-ethyl-9-hydroxy-5-oxo-6,7,7a,8,9,10,11,11a-octahydro-5H-dibenzo[a,c]cycloheptene-3-carboxylic acid (2-methyl-pyridin-3-yl)-amide]
3 | 100 to 1000 | CC#C[C@]1(O)CC[C@@]2(Cc3ccccc3)c3ccc(O)cc3CCC[C@H]2C1 (racemic) [Example 28, (3S,4aS,11bS)-11b-Benzyl-3-prop-1-ynyl-2,3,4,4a,5,6,7,11b-octahydro-1H-dibenzo[a,c]cycloheptene-3,9-diol; compound with (3R,4aR,11bR)-11b-benzyl-3-prop-1-ynyl-2,3,4,4a,5,6,7,11b-octahydro-1H-dibenzo[a,c]cycloheptene-3,9-diol]
4 | 100 to 1000 | CC#C[C@]1(O)CC[C@@]2(Cc3ccccc3)c3ccc(C(=O)Nc4cccnc4C)cc3CCC[C@H]2C1 (racemic) [Example 29, (7aS,9S,11aS)-11a-Benzyl-9-hydroxy-9-prop-1-ynyl-6,7,7a,8,9,10,11,11a-octahydro-5H-dibenzo[a,c]cycloheptene-3-carboxylic acid (2-methyl-pyridin-3-yl)-amide; compound with (7aR,9R,11aR)-11a-benzyl-9-hydroxy-9-prop-1-ynyl-6,7,7a,8,9,10,11,11a-octahydro-5H-dibenzo[a,c]cycloheptene-3-carboxylic acid (2-methyl-pyridin-3-yl)-amide]
5 | < 100 | Cc1ncccc1NC(=O)c1ccc2c(c1)CCC[C@H]1C[C@](C)(O)CC[C@@]21Cc1ccccc1 (racemic) [Example 30, (7aS,9R,11aS)-11a-Benzyl-9-hydroxy-9-methyl-6,7,7a,8,9,10,11,11a-octahydro-5H-dibenzo[a,c]cycloheptene-3-carboxylic acid (2-methyl-pyridin-3-yl)-amide; compound with (7aR,9S,11aR)-11a-benzyl-9-hydroxy-9-methyl-6,7,7a,8,9,10,11,11a-octahydro-5H-dibenzo[a,c]cycloheptene-3-carboxylic acid (2-methyl-pyridin-3-yl)-amide]
6 | < 100 | CCC[C@@]1(O)CC[C@@]2(Cc3ccccc3)c3ccc(C(=O)Nc4cccnc4C)cc3CCC[C@H]2C1 (racemic) [Example 31, (7aS,9R,11aS)-11a-Benzyl-9-hydroxy-9-propyl-6,7,7a,8,9,10,11,11a-octahydro-5H-dibenzo[a,c]cycloheptene-3-carboxylic acid (2-methyl-pyridin-3-yl)-amide; compound with (7aR,9S,11aR)-11a-benzyl-9-hydroxy-9-propyl-6,7,7a,8,9,10,11,11a-octahydro-5H-dibenzo[a,c]cycloheptene-3-carboxylic acid (2-methyl-pyridin-3-yl)-amide]
7 | < 100 | C#C[C@]1(O)CC[C@@]2(Cc3ccccc3)c3ccc(C(=O)Nc4cccnc4C)cc3CCC[C@H]2C1 (racemic) [Example 32, (7aS,9S,11aS)-11a-Benzyl-9-ethynyl-9-hydroxy-6,7,7a,8,9,10,11,11a-octahydro-5H-dibenzo[a,c]cycloheptene-3-carboxylic acid (2-methyl-pyridin-3-yl)-amide; compound with (7aR,9R,11aR)-11a-benzyl-9-ethynyl-9-hydroxy-6,7,7a,8,9,10,11,11a-octahydro-5H-dibenzo[a,c]cyclo heptene-3-carboxylic acid (2-methyl-pyridin-3-yl)-amide]
8 | < 100 | CCOC[C@@]1(O)CC[C@@]2(Cc3ccccc3)c3ccc(C(=O)Nc4cccnc4C)cc3CCC[C@H]2C1 (racemic) [Example 33, (7aS,9R,11aS)-11a-Benzyl-9-ethoxymethyl-9-hydroxy-6,7,7a,8,9,10,11,11a-octahydro-5H-dibenzo[a,c]cycloheptene-3-carboxylic acid (2-methyl-pyridin-3-yl)-amide; compound with (7aR,9S,11aR)-11a-benzyl-9-ethoxymethyl-9-hydroxy-6,7,7a,8,9,10,11,11a-octahydro-5H-dibenzo[a,c]cycloheptene-3-carboxylic acid (2-methyl-pyridin-3-yl)-amide]
9 | > 10000 | O=C1CCCC[C@H]2CC3(CC[C@@]12Cc1ccccc1)OCCO3 (racemic) [Example 37, (4aS,9aS)-4a-benzyloctahydrospiro[benzo[7]annulene-2,2′-[1,3]dioxolan]-5(1H)-one; compound with (4aR,9aR)-4a-benzyloctahydrospiro[benzo[7]annulene-2,2′-[1,3]dioxolan]-5(1H)-one]
10 | 100 to 1000 | Oc1ccc2c(c1)CCC[C@H]1C[C@@](O)(c3ccccc3)[C@H](O)C[C@@]21Cc1ccccc1 (racemic) [Example 42, (2R,3R,4aS,11bR)-11b-Benzyl-3-phenyl-2,3,4,4a,5,6,7,11b-octahydro-1H-dibenzo[a,c]cycloheptene-2,3,9-triol compound with (2S,3S,4aR,11bS)-11b-benzyl-3-phenyl-2,3,4,4a,5,6,7,11b-octahydro-1H-dibenzo[a,c]cycloheptene-2,3,9-triol]
11 | < 100 | CCC[C@@]1(O)CC[C@@]2(CC(F)(F)F)c3ccc(C(=O)Nc4cccnc4C)cc3CCC[C@H]2C1 (racemic) [Example 52]
12 | < 100 | Cc1ncccc1NC(=O)c1ccc2c(c1)CCC[C@H]1C[C@@](O)(CC(C)C)CC[C@@]21CC(F)(F)F (racemic) [Example 63, (7aS,9S,11aS)-9-Hydroxy-9-isobutyl-11a-(2,2,2-trifluoro-ethyl)-6,7,7a,8,9,10,11,11a-octahydro-5H-dibenzo[a,c]cycloheptene-3-carboxylic acid (2-methyl-pyridin-3-yl)-amide; compound with (7aR,9R,11aR)-9-hydroxy-9-isobutyl-11a-(2,2,2-trifluoro-ethyl)-6,7,7a,8,9,10,11,11a-octahydro-5H-dibenzo[a,c]cycloheptene-3-carboxylic acid (2-methyl-pyridin-3-yl)-amide]
13 | 100 to 1000 | CC[C@@]12CC[C@](O)(CC#N)C[C@@H]1CCCc1cc(C(=O)Nc3cccnc3C)ccc12 (racemic) [Example 64, (7aS,9R,11aR)-9-Cyanomethyl-11a-ethyl-9-hydroxy-6,7,7a,8,9,10,11,11a-octahydro-5H-dibenzo[a,c]cycloheptene-3-carboxylic acid (2-methyl-pyridin-3-yl)-amide; compound with (7aR,9S,11aS)-9-cyanomethyl-11a-ethyl-9-hydroxy-6,7,7a,8,9,10,11,11a-octahydro-5H-dibenzo[a,c]cyclo heptene-3-carboxylic acid (2-methyl-pyridin-3-yl)-amide]
14 | < 100 | Cc1ncccc1NC(=O)c1ccc2c(c1)CCC[C@H]1C[C@@](O)(CC#N)CC[C@@]21Cc1ccccc1 (racemic) [Example 65]
15 | < 100 | CC[C@@]12CC[C@](O)(COCC(F)(F)F)C[C@@H]1CCCc1cc(C(=O)Nc3cccnc3C)ccc12 (racemic) [Example 92, (7aS,9R,11aR)-11a-ethyl-9-hydroxy-9-(2,2,2-trifluoro-ethoxymethyl)-6,7,7a,8,9,10,11,11a-octahydro-5H-dibenzo[a,c]cycloheptene-3-carboxylic acid (2-methyl-pyridin-3-yl)-amide: compound with (7aR,9S,11aS)-11a-ethyl-9-hydroxy-9-(2,2,2-trifluoro-ethoxymethyl)-6,7,7a,8,9,10,11,11a-octahydro-5H-dibenzo[a,c]cycloheptene-3-carboxylic acid (2-methyl-pyridin-3-yl)-amide]
16 | < 100 | Cc1ncccc1NC(=O)c1ccc2c(c1)CCC[C@H]1C[C@@](O)(COCC(F)(F)F)CC[C@@]21Cc1ccccc1 (racemic) [Example 95]
17 | < 100 | Cc1ncccc1NC(=O)c1ccc2c(c1)CCC[C@H]1C[C@@](O)(COC3COC3)CC[C@@]21Cc1ccccc1 (racemic) [Example 96]
18 | < 100 | Cc1ncccc1NC(=O)c1ccc2c(c1)CCC[C@H]1C[C@@](O)(COC(C)C)CC[C@@]21Cc1ccccc1 (racemic) [Example 97]
